Here are results for seven molecules from PubChem BioAssay (NCI).

Among the test systems are OVCAR-8 ovarian; IGROV1 ovarian; T-47D breast; NCI-H522 lung; UO-31 renal; SK-MEL-5 melanoma; RPMI-8226 leukemia; RXF 393 renal; SN12C renal; DU-145 prostate; OVCAR-5 ovarian; SNB-19 CNS; HCC-2998 colon; SW-620 colon; OVCAR-4 ovarian; NCI-H460 lung; HS 578T breast; HCT-116 colon; EKVX NSCLC; MCF7 breast.
What all share (test): NCI-60 cell line screen, 48 h

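How tested: cells in 96-well plates exposed to compound for 48 hours at five concentrations. Definition used: TGI = concentration required for complete inhibition of growth.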 Some results are limits rather than exact numbers.

As to `CC1=NN(C(=O)CC(=O)Nc2ccccc2Cl)C(=O)C1N=Nc1ccc(C(=O)O)cc1` (stereo not drawn), the TGI in the experiment on OVCAR-8 ovarian, in the experiment with IGROV1 ovarian, in the experiment with T-47D breast, in the experiment with NCI-H522 lung, in the experiment with UO-31 renal and in the experiment on SK-MEL-5 melanoma was > 100 µM throughout. For the same molecule, the TGI in the experiment on RPMI-8226 leukemia, in the experiment on RXF 393 renal, in the experiment with SN12C renal, with DU-145 prostate, with OVCAR-5 ovarian and with SNB-19 CNS was > 100 µM each time. The TGI in the experiment with HCC-2998 colon, in the experiment with SW-620 colon, in the experiment with OVCAR-4 ovarian, in the experiment on NCI-H460 lung, in the experiment with HS 578T breast and with HCT-116 colon was > 100 µM in each case. Further, the TGI in the experiment with EKVX NSCLC and in the experiment with MCF7 breast was > 100 µM each time.
On to `N#CC1=C(S)N(C2OC(CO)C(O)C(O)C2O)C(c2ccccc2)=CC1c1ccccc1` (stereo not drawn), for which the TGI with OVCAR-8 ovarian is > 100 µM; in the experiment with IGROV1 ovarian, > 100 µM; in the experiment on T-47D breast it was 96.7 µM; in the experiment on NCI-H522 lung, > 100 µM; in the experiment with UO-31 renal, > 100 µM; with SK-MEL-5 melanoma it was 43.6 µM. The TGI is > 100 µM with RPMI-8226 leukemia; 92.7 µM in the experiment on RXF 393 renal; > 100 µM in the experiment with SN12C renal; > 100 µM in the experiment on DU-145 prostate; > 100 µM with OVCAR-5 ovarian; > 100 µM in the experiment on SNB-19 CNS. Besides, the TGI in the experiment with HCC-2998 colon is 96.4 µM; with SW-620 colon, > 100 µM; in the experiment with OVCAR-4 ovarian, > 100 µM; in the experiment with NCI-H460 lung, > 100 µM; in the experiment with HS 578T breast, > 100 µM; in the experiment on HCT-116 colon, > 100 µM. For the same molecule, the TGI with MCF7 breast was > 100 µM.
Regarding `O=C1CC(CC(O)C(O)C(O)CO)CC(=O)N1` (stereo not drawn), the TGI with OVCAR-8 ovarian, with IGROV1 ovarian, in the experiment with T-47D breast, in the experiment on NCI-H522 lung, in the experiment on UO-31 renal and in the experiment with SK-MEL-5 melanoma was > 100 µM each time. In addition, the TGI in the experiment with RPMI-8226 leukemia, with RXF 393 renal, in the experiment with SN12C renal, with DU-145 prostate, in the experiment with OVCAR-5 ovarian and with HCC-2998 colon was > 100 µM throughout. Also, the TGI in the experiment with SW-620 colon, in the experiment with OVCAR-4 ovarian, in the experiment with NCI-H460 lung, with HS 578T breast, with HCT-116 colon and with EKVX NSCLC was > 100 µM in each case. In addition, the TGI in the experiment with MCF7 breast was > 100 µM.
As to `CS(=O)(=O)c1nc(-c2cc3c(c(S(C)(=O)=O)n2)CCCC3)cc2c1CCCC2`, the TGI was > 69.5 µM in the experiment on OVCAR-8 ovarian; > 43.5 µM with IGROV1 ovarian; > 100 µM with T-47D breast; > 77.6 µM with NCI-H522 lung; 0.111 µM in the experiment with UO-31 renal; > 100 µM with SK-MEL-5 melanoma. Also, the TGI in the experiment on RPMI-8226 leukemia was > 100 µM; in the experiment on RXF 393 renal, > 74.9 µM; in the experiment on SN12C renal, > 100 µM; in the experiment on DU-145 prostate, > 100 µM; in the experiment with OVCAR-5 ovarian, > 100 µM; in the experiment with SNB-19 CNS it was > 100 µM. Also, the TGI was > 100 µM in the experiment on HCC-2998 colon; > 100 µM in the experiment on SW-620 colon; > 100 µM in the experiment with OVCAR-4 ovarian; > 33 µM in the experiment with HS 578T breast; > 100 µM in the experiment on HCT-116 colon; > 100 µM in the experiment on EKVX NSCLC. The TGI in the experiment with MCF7 breast is > 100 µM.
In the case of `CN(c1ccccc1)S(=O)(=O)c1ccccc1[N+](=O)[O-]`, the TGI in the experiment on OVCAR-8 ovarian, with IGROV1 ovarian, with T-47D breast, with NCI-H522 lung, with UO-31 renal and with RPMI-8226 leukemia was > 100 µM in each case. Besides, the TGI with RXF 393 renal, in the experiment with SN12C renal, in the experiment on DU-145 prostate, with OVCAR-5 ovarian, in the experiment on SNB-19 CNS and with HCC-2998 colon was > 100 µM each time. Also, the TGI in the experiment on SW-620 colon, with OVCAR-4 ovarian, with NCI-H460 lung, in the experiment with HS 578T breast, in the experiment with HCT-116 colon and in the experiment with EKVX NSCLC was > 100 µM in each case. The TGI with MCF7 breast is > 100 µM.
As to `O=C1OCC2(CO1)CC1C=CC2C1` (stereo not drawn), the TGI in the experiment on IGROV1 ovarian, in the experiment on T-47D breast, in the experiment on NCI-H522 lung, with UO-31 renal, with SK-MEL-5 melanoma and in the experiment with RPMI-8226 leukemia was > 100 µM throughout. For the same molecule, the TGI in the experiment on RXF 393 renal, in the experiment on SN12C renal, in the experiment with DU-145 prostate, with OVCAR-5 ovarian, in the experiment on SNB-19 CNS and with HCC-2998 colon was > 100 µM each time. For the same molecule, the TGI in the experiment with SW-620 colon, in the experiment with OVCAR-4 ovarian, in the experiment with NCI-H460 lung, in the experiment with HS 578T breast, in the experiment with HCT-116 colon and in the experiment on EKVX NSCLC was > 100 µM throughout. In addition, in the experiment on MCF7 breast, the TGI is > 100 µM.
Turning to `CCOC(=O)c1nc2ccccc2nc1NCc1ccc(OC)cc1`, the TGI in the experiment with OVCAR-8 ovarian, in the experiment with IGROV1 ovarian, with T-47D breast, with NCI-H522 lung, in the experiment on UO-31 renal and in the experiment with SK-MEL-5 melanoma was > 100 µM in each case. Also, the TGI with RPMI-8226 leukemia is > 100 µM; with RXF 393 renal, 71.5 µM; with DU-145 prostate, > 100 µM; in the experiment with OVCAR-5 ovarian, > 100 µM; in the experiment on HCC-2998 colon, > 100 µM; with SW-620 colon, > 100 µM. In addition, the TGI in the experiment with OVCAR-4 ovarian, with NCI-H460 lung, in the experiment on HS 578T breast, in the experiment on HCT-116 colon, in the experiment on EKVX NSCLC and with MCF7 breast was > 100 µM throughout.
